Laboratory results as given in patent US20130217778A1, “METHODS AND COMPOSITIONS FOR THE IMPROVEMENT OF SKELETAL MUSCLE FUNCTION IN A MAMMAL” (priority 2010, published 2013).

Experiments:
Assay type in all cases: cell-based
[1] = tested on: human Duchenne muscular dystrophy (DMD) muscle tissue (mBAM); test: MFAS fatigue assay of human DMD mBAMs; settings: low concentrations, FIGS. 10A-10C
Protocol: (§1) High glucose tissue culture medium (4.5 g/l) was used in all experiments to maintain glucose levels well above normal human blood plasma levels (0.9 to 1.8 g/l) and, thereby, minimize drug action through increased glucose availability to the muscle cells. Varying concentrations of metformin (Sigma-Aldrich Cat. No. D15,095-9; 1,1-dimethylbiguanide hydrochloride) were added to tissue culture medium of mBAMs when the mBAMs had reached a plateau of maximal tetanic force, which was measured in a MyoForce Analysis System (MFAS™) 24 hours later. Every 24 hours, fresh metformin was added to fresh tissue culture medium, and tetanic forces were measured every 24 hours for 3-4 days. Fatigue was assayed after 3-4 days of metformin treatment by 15-20 repetitive tetanic stimulations of each mBAM at 14V, 60 Hz for 2 seconds every 4-5 seconds. Force is determined after each stimulation and compared to the initial force determined after the first stimulation relative to untreated controls. (Mean±S.E.M. of 3-8 samples per group was calculated and statistical analyses performed by t-tests.)
The immortalized muscle cells were tissue engineered into contractile muscle tissue (mBAMs), and muscle force and fatigue were measured as described above. High glucose tissue culture medium (4.5 g/l) was used to maintain glucose levels well above normal human blood plasma levels (0.9 to 1.8 g/l) and, thereby, minimize drug action through increased glucose availability to the muscle cells. […] Every 24 hours, fresh biguanide was added in fresh medium and tetanic force measured for a total of 3-4 days.

[2] = tested on: normal human muscle tissue (mBAM); test: MFAS tetanic force of mBAMs from normal human vastus lateralis muscle cells; settings: 3-4 days of exposure, FIGS. 7A-7D
Protocol: as §1

[3] = tested on: mdx murine muscle tissue (mBAM); test: MFAS maximal tetanic force of mBAMs from mdx mouse muscle cells; settings: low concentrations experiment, four days of exposure, FIG. 4A
Source text: (§2) Conditionally immortalized skeletal muscle cells from the mdx mouse muscle (Morgan et al., Dev Biol. 162: 486-498, 1994) were tissue engineered into contractile muscle tissue (mBAMs), as described herein. (See also, e.g., Vandenburgh et al., Muscle and Nerve 37: 438-447, 2008; Vandenburgh et al., Treat NMD Meeting, 2009). Briefly, several hundred thousand proliferating myoblasts were mixed with a solution of extracellular matrix (collagen or fibrin) and pipetted into custom wells containing two flexible “posts” (FIG. 1A). The cell/matrix mixture gelled around the tops of the posts, forming a defined tubular structure (FIG. 1B). […] Maximal tetanic force (i.e., muscle strength) was measured by imaging the deflection of the attachment posts and converting the distance of deflection into force, as illustrated in FIGS. 2A-2B.
(§3) High glucose tissue culture medium (4.5 g/l) was used in all experiments to maintain glucose levels well above normal human blood plasma levels (0.9 to 1.8 g/l) and, thereby, minimize drug action through increased glucose availability to the muscle cells. Varying concentrations of metformin (Sigma-Aldrich Cat. No. D15,095-9; 1,1-dimethylbiguanide hydrochloride) were added to tissue culture medium of mBAMs when the mBAMs had reached a plateau of maximal tetanic force, which was measured in a MyoForce Analysis System (MFAS™) 24 hours later. […]

[4] = tested on: normal mouse skeletal muscle tissue (mBAM); test: MFAS tetanic force of mBAMs from normal mouse leg muscle cells
Protocol: as §1
High glucose tissue culture medium (4.5 g/l) was used in all experiments to maintain glucose levels well above normal human blood plasma levels (0.9 to 1.8 g/l) and, thereby, minimize drug action through increased glucose availability to the muscle cells.

[5] = tested on: mdx murine skeletal muscle tissue (mBAM); test: MFAS fatigue assay (repetitive tetanic stimulation) of mdx mouse mBAMs; settings: repetitive tetanic stimulation after 3-4 days of treatment, FIG. 4B
Source text: as §2, §3

[6] = tested on: human Duchenne muscular dystrophy (DMD) muscle tissue (mBAM); test: MFAS tetanic force of mBAMs from immortalized Duchenne muscular dystrophy muscle cells; settings: 3-4 days of exposure, FIGS. 9A, 9B, 9D
Protocol: as §1
The immortalized muscle cells were tissue engineered into contractile muscle tissue (mBAMs), and muscle force and fatigue were measured as described above. […] Every 24 hours, fresh biguanide was added in fresh medium and tetanic force measured for a total of 3-4 days.

## CCCCNC(=N)NC(=N)N [buformin, Buformin]
[1]
  effect on the rate of muscle fatigue with repetitive stimulations: decreased the rate of muscle fatigue
[2]
  concentrations that increased tetanic force generated by the muscle tissue: less than 0.1 μg/ml

## CN(C)C(=N)NC(=N)N [metformin, 1,1-dimethylimido-dicarbonimidic diamide]
[1]
  effect on the rate of muscle fatigue with repetitive stimulations: decreased the rate of muscle fatigue
[3]
  concentration that significantly increased maximal tetanic force generated by mBAM muscle tissue: 0.0006 µg/mL
[4]; 3-4 days of exposure, FIGS. 5A-5B
  concentration that increased tetanic force generated by the muscle tissue: 0.0006 µg/mL
[5]
  concentration that significantly decreased the rate of muscle fatigue: 0.000001 µg/mL

## N=C(N)NC(=N)NCCc1ccccc1 [phenformin, Phenformin]
[1]
  effect on the rate of muscle fatigue with repetitive stimulations: decreased the rate of muscle fatigue

## CC(C)NC(=N)NC(=N)Nc1ccc(Cl)cc1 [proguanil, 1-(4-chlorophenyl)-5-isopropyl-biguanide]
[4]; after 3 days of treatment, FIG. 5C
  concentration that significantly increased tetanic force: 0.001 µg/mL
[6]
  concentrations that increased tetanic force generated by the muscle tissue: ≤ 0.00006 µg/mL
[2]
  concentrations that increased tetanic force generated by the muscle tissue: less than 0.0001 μg/ml
